Reference: paper PMC6624251, “Isoform-specific Inhibition of N-methyl-D-aspartate Receptors by Bile Salts” (Scientific Reports, 2019)
Read-outs that look alike come from different tables or passages of the source.

How the values were obtained:
[1] = molecular target: kainate receptor GluK2 (Rattus norvegicus, UniProt P42260); test: Two-electrode voltage clamp of kainate receptor in Xenopus laevis oocytes; format: cell-based; details: 100 µM CDC; after block of desensitization with ConA; n = 3
Description: (§1) The resulting EC50 or IC50 values were averaged.

[2] = molecular target: AMPA receptor GluA1/GluA2 (Rattus norvegicus, UniProt P19490+P19491); test: Two-electrode voltage clamp of AMPA receptor in Xenopus laevis oocytes; format: cell-based; details: 100 µM CDC; n = 6
Description: as §1

[3] = molecular target: GluN3B Ser701 to Ala (Mus musculus, UniProt Q91ZU9, S701A); test: Two-electrode voltage clamp of GluN3B point mutant Ser701 to Ala in oocytes; format: cell-based; details: for Increase in block for the mutant compared with wild type: 100 µM bile salt, n = 11–13
Description: as §1

[4] = molecular target: GluN1/GluN2D receptors (Rattus norvegicus, UniProt P35439+Q62645); test: Two-electrode voltage clamp of recombinant NMDARs in Xenopus laevis oocytes (GluN2D); details: for IC50: read-out: IC50 Tauro-CDC
Description: (§2) The cDNAs coding for NMDA and kainate receptors, subcloned into pSGEM for expression in Xenopus laevis oocytes, were kindly provided by Michael Hollmann (Ruhr University Bochum). AMPA receptor cDNAs were inserted in pGEM-HE for cRNA synthesis. The following cDNAs were used: GluN1-1a (U08261), GluN2A (NM_012573), GluN2B (NM_012574), GluN2D (U08260), GluN3B (NM_130455), GluK2 (NM_019309), GluA1 (NM_031608) and GluA2 (M38061). These cDNAs are from rat except for GluN3B, which is from mouse. Point mutants were generated by polymerase chain reaction (PCR)-directed mutagenesis with specific mismatch primers (biomers.net). cRNA was synthesized from 1 µg of linearized plasmid DNA using an in vitro transcription kit (mMESSAGE mMACHINE® T7 Transcription Kit, Thermo Fisher Scientific).
(§3) Oocytes were obtained from parts of the ovaries surgically removed from Xenopus laevis in accordance with German law and approved by the local authorities of the Heinrich Heine University of Düsseldorf. Lumps of around 20 oocytes were incubated with 10 mg/ml collagenase type 2 (Worthington Biochemical Corporation) for 1–1.5 h in Ca^2+-free Barth’s solution (in mM: 88 NaCl, 1 KCl, 2.4 NaHCO3, 0.82 MgSO4, 20 HEPES, pH adjusted to 7.5 with NaOH) with slow agitation to remove the follicular cell layer and then washed extensively with Barth’s solution containing Ca^2+ (in mM: 88 NaCl, 1 KCl, 2.4 NaHCO3, 0.82 MgSO4, 0.41 CaCl2, 0.33 Ca(NO3)2, 20 HEPES, pH adjusted to 7.5 with NaOH) to inactivate the collagenase. Oocytes were maintained in Barth’s solution charged with antibiotic and antimycotic solution (containing penicillin, streptomycin and amphotericin B, Sigma-Aldrich) at 18 °C. Alternatively, Xenopus laevis oocytes were purchased from EcoCyte Bioscience (Castrop-Rauxel, Germany). Within 24 h after surgery, oocytes of stages V-VI were injected with 3.8 ng GluN1 and 5 ng GluN2A or GluN2B cRNAs, 7.6 ng GluN1 and 10 ng GluN2D cRNA or 7.6 ng GluN1 and 6.4 ng GluN3B-cRNA per oocyte (molecular GluN1 to GluN2 ratio: 1:1; GluN1 to GluN3 ratio: 1:1) using a Micro4 nanoliter injector (World Precision Instruments, Sarasota, FL, USA).
(§4) Two-electrode voltage clamp recordings of oocyte current responses were performed 3–5 days after cRNA injection at −70 mV holding potential with a Turbo Tec-03X amplifier (npi electronic, Germany) controlled by Pulse software (HEKA, Germany). Electrodes were filled with 3 M KCl and had resistances of 0.5–1.5 MΩ. […] Agonists and bile salts were applied for 20–40 s by superfusion. Agonist and bile salt blocker potencies were determined by recording current responses induced by the application of increasing agonist concentrations or increasing bile salt concentration to the same oocyte. Agonist-induced currents were normalized to the maximum response under saturating agonist concentration. In case of inhibition by bile salts the relative reduction in agonist-induced current was determined. Data from each oocyte was fitted separately to the Hill equation using Origin 9 software. The resulting EC50 or IC50 values were averaged. Current-voltage relationships were determined by ramping the holding potential from −140 mV to +50 mV corrected for background conductivities. Data are reported as mean ± standard error of the mean (SEM). Statistical significance was determined using the unpaired, two-tailed Student’s t-test.

[5] = molecular target: GluN3B Tyr505 to Ala (Mus musculus, UniProt Q91ZU9, Y505A); details: n = 9
Description: AMPA receptor cDNAs were inserted in pGEM-HE for cRNA synthesis. The following cDNAs were used: GluN1-1a (U08261), GluN2A (NM_012573), GluN2B (NM_012574), GluN2D (U08260), GluN3B (NM_130455), GluK2 (NM_019309), GluA1 (NM_031608) and GluA2 (M38061). These cDNAs are from rat except for GluN3B, which is from mouse. Point mutants were generated by polymerase chain reaction (PCR)-directed mutagenesis with specific mismatch primers (biomers.net). cRNA was synthesized from 1 µg of linearized plasmid DNA using an in vitro transcription kit (mMESSAGE mMACHINE® T7 Transcription Kit, Thermo Fisher Scientific). […]
Two-electrode voltage clamp recordings of oocyte current responses were performed 3–5 days after cRNA injection at −70 mV holding potential with a Turbo Tec-03X amplifier (npi electronic, Germany) controlled by Pulse software (HEKA, Germany). […] Agonist and bile salt blocker potencies were determined by recording current responses induced by the application of increasing agonist concentrations or increasing bile salt concentration to the same oocyte. […] In case of inhibition by bile salts the relative reduction in agonist-induced current was determined. […] Current-voltage relationships were determined by ramping the holding potential from −140 mV to +50 mV corrected for background conductivities. […] Statistical significance was determined using the unpaired, two-tailed Student’s t-test.

[6] = molecular target: GluN1/GluN3B receptors (Mus musculus, UniProt Q91ZU9); test: Two-electrode voltage clamp of recombinant NMDARs in Xenopus laevis oocytes (GluN3B); details: for maximum block by tauro-CDC / IC50: n = 6; for IC50: read-out: mean IC50 for tauro-CDC
Description: as §2, §3, §4

[7] = system: NMDAR; parameters: method as in PMID 1372086; details: read-out: reported EC50; cited from earlier work
[8] = system: uninjected oocytes; test: Agonist application to uninjected oocytes; format: cell-based, Xenopus laevis; details: n = 3
Description: as §1

Sequence of GluN1/GluN3B receptors (Q91ZU9 25-1003, other chains not shown): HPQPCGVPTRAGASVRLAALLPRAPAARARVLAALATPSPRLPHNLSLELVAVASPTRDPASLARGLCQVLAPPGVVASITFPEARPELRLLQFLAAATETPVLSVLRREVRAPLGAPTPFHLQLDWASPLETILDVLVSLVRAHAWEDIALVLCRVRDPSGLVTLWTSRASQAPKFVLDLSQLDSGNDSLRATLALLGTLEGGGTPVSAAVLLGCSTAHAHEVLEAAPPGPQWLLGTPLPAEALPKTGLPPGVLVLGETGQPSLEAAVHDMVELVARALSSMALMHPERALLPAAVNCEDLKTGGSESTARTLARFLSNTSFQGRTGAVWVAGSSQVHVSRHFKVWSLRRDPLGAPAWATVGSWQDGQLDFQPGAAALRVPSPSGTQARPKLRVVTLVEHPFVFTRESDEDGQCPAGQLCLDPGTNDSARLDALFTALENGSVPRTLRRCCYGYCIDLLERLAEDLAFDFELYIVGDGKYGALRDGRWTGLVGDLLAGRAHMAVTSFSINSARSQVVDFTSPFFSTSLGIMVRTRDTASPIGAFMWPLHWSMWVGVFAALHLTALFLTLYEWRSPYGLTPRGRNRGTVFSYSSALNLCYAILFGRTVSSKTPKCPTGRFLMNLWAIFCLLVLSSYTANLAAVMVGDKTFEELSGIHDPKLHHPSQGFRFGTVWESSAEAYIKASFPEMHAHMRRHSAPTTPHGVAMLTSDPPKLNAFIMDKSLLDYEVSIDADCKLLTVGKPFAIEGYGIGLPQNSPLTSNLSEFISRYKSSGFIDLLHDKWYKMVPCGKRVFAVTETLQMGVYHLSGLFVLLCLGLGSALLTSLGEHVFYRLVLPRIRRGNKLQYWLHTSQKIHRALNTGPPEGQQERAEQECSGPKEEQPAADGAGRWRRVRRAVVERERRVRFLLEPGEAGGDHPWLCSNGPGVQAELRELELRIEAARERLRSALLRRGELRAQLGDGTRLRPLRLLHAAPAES
Sequence of GluN1/GluN2D receptors (Q62645 28-1323, other chains not shown): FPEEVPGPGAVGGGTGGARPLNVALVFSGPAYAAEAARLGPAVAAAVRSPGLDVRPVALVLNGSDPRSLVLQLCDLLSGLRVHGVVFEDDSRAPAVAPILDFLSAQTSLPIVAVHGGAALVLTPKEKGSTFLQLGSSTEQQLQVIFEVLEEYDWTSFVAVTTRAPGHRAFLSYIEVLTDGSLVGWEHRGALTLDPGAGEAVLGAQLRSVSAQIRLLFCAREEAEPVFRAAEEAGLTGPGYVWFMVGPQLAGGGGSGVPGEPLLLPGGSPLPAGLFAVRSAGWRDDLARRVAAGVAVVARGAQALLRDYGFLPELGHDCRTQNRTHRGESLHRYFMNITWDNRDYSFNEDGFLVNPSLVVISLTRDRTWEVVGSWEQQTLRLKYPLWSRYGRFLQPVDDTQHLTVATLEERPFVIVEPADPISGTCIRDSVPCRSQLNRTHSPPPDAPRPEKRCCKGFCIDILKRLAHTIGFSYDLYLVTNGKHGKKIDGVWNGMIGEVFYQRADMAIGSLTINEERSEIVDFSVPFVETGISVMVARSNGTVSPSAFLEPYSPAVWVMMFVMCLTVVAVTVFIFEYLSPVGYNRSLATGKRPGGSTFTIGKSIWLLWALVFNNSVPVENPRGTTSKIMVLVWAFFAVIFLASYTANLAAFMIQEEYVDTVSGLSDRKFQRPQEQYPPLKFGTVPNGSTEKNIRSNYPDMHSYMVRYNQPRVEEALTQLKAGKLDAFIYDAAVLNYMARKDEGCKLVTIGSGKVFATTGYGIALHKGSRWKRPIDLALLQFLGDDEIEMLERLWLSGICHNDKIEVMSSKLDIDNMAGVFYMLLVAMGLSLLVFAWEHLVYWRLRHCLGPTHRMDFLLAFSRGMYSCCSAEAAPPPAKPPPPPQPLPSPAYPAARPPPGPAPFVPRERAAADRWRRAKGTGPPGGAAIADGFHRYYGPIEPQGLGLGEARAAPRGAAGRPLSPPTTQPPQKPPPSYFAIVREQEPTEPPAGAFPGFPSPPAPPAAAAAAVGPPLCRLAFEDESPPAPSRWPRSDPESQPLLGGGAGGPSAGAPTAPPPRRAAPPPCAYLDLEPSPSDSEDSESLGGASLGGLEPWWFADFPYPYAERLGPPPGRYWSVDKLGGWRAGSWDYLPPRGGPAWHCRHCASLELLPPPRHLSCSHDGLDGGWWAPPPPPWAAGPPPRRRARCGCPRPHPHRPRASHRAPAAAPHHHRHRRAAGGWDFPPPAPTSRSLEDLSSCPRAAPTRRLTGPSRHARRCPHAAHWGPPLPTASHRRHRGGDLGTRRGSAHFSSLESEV
Sequence of GluN3B Ser701 to Ala (Q91ZU9 25-1003 S701A, other chains not shown): as the sequence (Q91ZU9 25-1003, other chains not shown) above, with S677A counted along it
Sequence of AMPA receptor GluA1/GluA2 (P19490 19-907): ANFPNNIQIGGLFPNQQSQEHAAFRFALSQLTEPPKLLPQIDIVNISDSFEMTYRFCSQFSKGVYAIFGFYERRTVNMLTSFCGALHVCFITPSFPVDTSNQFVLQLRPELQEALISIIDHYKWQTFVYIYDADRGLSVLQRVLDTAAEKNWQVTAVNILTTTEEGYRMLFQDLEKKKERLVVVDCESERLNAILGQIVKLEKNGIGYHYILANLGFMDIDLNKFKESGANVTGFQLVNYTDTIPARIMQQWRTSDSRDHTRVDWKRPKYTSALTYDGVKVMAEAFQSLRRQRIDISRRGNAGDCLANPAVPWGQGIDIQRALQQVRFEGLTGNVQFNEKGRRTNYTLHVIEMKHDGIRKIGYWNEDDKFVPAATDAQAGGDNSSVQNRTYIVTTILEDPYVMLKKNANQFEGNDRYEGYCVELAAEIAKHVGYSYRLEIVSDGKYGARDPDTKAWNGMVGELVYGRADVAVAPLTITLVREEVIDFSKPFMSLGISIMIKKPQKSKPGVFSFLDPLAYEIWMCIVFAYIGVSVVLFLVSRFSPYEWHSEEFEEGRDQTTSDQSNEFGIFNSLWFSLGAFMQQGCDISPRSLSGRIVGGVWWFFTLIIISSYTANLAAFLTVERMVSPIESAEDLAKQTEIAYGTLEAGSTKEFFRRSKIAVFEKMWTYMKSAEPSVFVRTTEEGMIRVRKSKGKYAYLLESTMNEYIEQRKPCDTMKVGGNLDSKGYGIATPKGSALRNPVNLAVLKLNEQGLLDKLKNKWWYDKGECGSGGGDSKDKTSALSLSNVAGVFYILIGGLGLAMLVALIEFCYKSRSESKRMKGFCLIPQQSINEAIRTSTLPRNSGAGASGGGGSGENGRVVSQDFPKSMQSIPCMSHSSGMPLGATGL
Sequence of AMPA receptor GluA1/GluA2 (P19491 22-883): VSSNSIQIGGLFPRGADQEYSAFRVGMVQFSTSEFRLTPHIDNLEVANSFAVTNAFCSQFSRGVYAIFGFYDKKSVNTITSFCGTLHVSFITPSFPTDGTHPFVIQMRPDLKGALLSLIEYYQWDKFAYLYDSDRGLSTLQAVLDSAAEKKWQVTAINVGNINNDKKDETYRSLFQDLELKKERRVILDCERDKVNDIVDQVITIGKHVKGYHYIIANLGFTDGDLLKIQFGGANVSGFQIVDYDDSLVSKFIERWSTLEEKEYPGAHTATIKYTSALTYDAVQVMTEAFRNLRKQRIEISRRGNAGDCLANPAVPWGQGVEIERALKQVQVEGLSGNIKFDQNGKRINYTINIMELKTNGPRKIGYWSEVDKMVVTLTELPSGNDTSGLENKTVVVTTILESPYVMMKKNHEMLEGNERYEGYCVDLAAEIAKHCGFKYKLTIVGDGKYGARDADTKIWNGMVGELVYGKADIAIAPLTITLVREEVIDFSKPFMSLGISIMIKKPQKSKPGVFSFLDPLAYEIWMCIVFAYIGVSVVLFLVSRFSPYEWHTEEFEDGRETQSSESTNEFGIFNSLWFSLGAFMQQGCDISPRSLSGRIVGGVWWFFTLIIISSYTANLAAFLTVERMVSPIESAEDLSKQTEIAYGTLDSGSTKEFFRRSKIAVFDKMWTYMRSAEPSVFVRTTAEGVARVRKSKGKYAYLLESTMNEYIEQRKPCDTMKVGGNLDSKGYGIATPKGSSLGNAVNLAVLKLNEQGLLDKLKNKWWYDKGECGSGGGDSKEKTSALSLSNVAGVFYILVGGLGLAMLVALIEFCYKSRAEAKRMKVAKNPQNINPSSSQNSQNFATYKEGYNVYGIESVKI
Sequence of kainate receptor GluK2 (P42260 32-908): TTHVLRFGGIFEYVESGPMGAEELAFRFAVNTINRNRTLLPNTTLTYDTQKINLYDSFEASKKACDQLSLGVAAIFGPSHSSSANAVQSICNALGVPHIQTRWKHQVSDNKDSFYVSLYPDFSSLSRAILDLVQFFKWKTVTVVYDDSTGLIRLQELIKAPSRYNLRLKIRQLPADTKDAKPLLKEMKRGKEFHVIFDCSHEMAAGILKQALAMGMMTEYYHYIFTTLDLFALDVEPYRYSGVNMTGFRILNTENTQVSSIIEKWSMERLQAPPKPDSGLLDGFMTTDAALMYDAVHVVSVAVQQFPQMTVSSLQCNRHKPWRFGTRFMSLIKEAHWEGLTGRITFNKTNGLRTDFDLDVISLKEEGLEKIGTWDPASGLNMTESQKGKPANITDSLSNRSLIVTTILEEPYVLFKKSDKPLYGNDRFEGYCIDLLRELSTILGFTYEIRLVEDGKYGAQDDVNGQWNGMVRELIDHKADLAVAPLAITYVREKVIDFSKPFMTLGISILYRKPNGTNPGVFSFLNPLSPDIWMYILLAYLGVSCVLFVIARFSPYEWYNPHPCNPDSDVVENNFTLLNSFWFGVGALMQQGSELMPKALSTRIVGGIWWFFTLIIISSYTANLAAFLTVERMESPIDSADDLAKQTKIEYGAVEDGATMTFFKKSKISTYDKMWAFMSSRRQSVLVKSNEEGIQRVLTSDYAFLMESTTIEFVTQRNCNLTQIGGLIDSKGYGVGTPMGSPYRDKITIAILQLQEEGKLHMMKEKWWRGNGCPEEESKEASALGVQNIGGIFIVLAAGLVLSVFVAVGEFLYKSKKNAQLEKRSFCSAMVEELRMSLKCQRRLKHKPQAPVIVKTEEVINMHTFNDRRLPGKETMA
Sequence of GluN3B Tyr505 to Ala (Q91ZU9 25-1003 Y505A, other chains not shown): as the sequence (Q91ZU9 25-1003, other chains not shown) above, with Y481A counted along it

For `C[C@H](CCC(=O)O)[C@H]1CC[C@H]2[C@@H]3[C@H](O)C[C@@H]4C[C@H](O)CC[C@]4(C)[C@H]3CC[C@]12C` [CDC, chenodeoxycholate], the “Inhibition of glutamate-induced steady-state GluK2 current” value [1] was “no inhibition”, the “Reduction of GluA1/GluA2 currents” value [2] was 7 ± 1% and the “Increase in block for the mutant compared with wild type” value [3] was 15%.

With `N[C@@H](CCC(=O)O)C(=O)O` [Glu, glutamate] the “max. Glu-induced current [normalized]” value ([4]; 10 µM Gly) was 1.00 ± 0.17 (7) and the “max. Glu-induced current [normalized]” value ([4]; 10 µM Gly + 180 µM Tauro-CDC) was 0.25 ± 0.06 (7).

For `NCC(=O)O` [Gly, glycine], the glycine-induced currents ([3]; Ser701 to Ala mutant, n = 29) was 106 ± 12 nA, the “Activation of mutant receptor by agonist” value [5] was “could not be activated” and the glycine-induced currents ([6]; wild type, n = 30) was 835 ± 85 nA.

For `N[C@@H](CCS(=O)(=O)O)C(=O)O` [L-HCA, L-homocysteic acid], the EC50 [7] is given as 13 µM and the “Activation of GluN3B by agonist” value ([6]; concentrations of up to 1 mM, n = 4) is given as “could not be activated”.

For `O=C(O)c1cccnc1C(=O)O` [QN, quinolinic acid], the “Effect on uninjected oocytes” value [8] is given as “no effect” and the EC50 [7] is given as 7200 µM.

For `C[C@H](CCC(=O)NCCS(=O)(=O)O)[C@H]1CC[C@H]2[C@@H]3[C@H](O)C[C@@H]4C[C@H](O)CC[C@]4(C)[C@H]3CC[C@]12C` [Tauro-CDC], the “Increase in block for the mutant compared with wild type” value [3] was 15%, the “max. block by Tauro-CDC” value ([4]; 10 µM Gly, 0.51 µM Glu) was 100 ± 4 (11) % and the “max. block by Tauro-CDC” value ([4]; 10 µM Gly, 150 µM Glu) was 87 ± 3 (13) %. For the same compound, the “Block of L-HCA-induced GluN2D currents” value ([4]; 100 µM tauro-CDC, L-HCA 13 µM, 10 µM glycine co-agonist, n = 12) was 30 ± 2%, the “Inhibition of QN-induced GluN2D currents” value ([4]; 100 µM tauro-CDC, QN 1 mM, 10 µM glycine co-agonist, n = 7) was 29 ± 2% and the “Reduction of QN-induced GluN2D currents” value ([4]; 100 µM tauro-CDC, QN 7.2 mM, 10 µM glycine co-agonist, n = 7) was 26 ± 2%. The “Effect in the absence of NMDAR agonists (partial agonist action)” value ([4]; 100 µM tauro-CDC, n = 4) was “no effects”, the “Effect on I/V relationship and reversal potential of agonist-induced currents” value ([4]; 100 µM tauro-CDC, n = 10–11) was “did neither change the shape of I/V relationships nor did it shift the reversal potentials” and the “max. block by Tauro-CDC” value ([4]; […] Gly, 150 µM Glu) was 98 ± 3 (8) %. The IC50 ([4]; 10 µM Gly, 0.51 µM Glu) was 137 ± 8 µM, the IC50 ([4]; 10 µM Gly, 150 µM Glu (saturating agonist concentration)) was 179 ± 11 µM and the IC50 ([4]; […] Gly, 150 µM Glu) was 153 ± 8 µM. The “maximum block by tauro-CDC” value ([6]; 5 μM glycine) was 92 ± 3%, the “maximum block by tauro-CDC” value ([6]; 10 μM glycine) was 95 ± 3% and the “Effect in the absence of NMDAR agonists (partial agonist action)” value ([6]; 100 µM tauro-CDC, n = 4) was “no effects”. For the same compound, the “Effect on I/V relationship and reversal potential of agonist-induced currents” value ([6]; 100 µM tauro-CDC, n = 10–11) was “did neither change the shape of I/V relationships nor did it shift the reversal potentials”, the IC50 ([6]; in the presence of 5 μM glycine) was 44 ± 7 µM and the IC50 ([6]; in the presence of 10 μM glycine) was 83 ± 8 µM. The “Reduction of QN-induced GluN3B currents” value ([6]; tauro-CDC 100 µM, QN 7.2 mM, n = 5) was “about 68 ± 4%”.
